Source: patent US20220018849A1, “SERINE HYDROLASE PROFILING ASSAY IN BIOTHERAPEUTICS” (Merck Sharp & Dohme Corp., priority 2020, published 2022)

Assays:
[1] = reference 6; cited from earlier work
[2] = PS-80 degradation in protein formulations containing PLBL2 (unpublished results); assay type: physicochemical; settings: protein formulations containing over 500 ppm of PLBL2
[3] = tested on: serine hydrolases; test: Activity-based chemical proteomics approach (fluorophosphonate probe enrichment, LC-MS/MS); settings: HCCF, compared to other lipases

Row | enrichment of the enzyme by the chemical probes ([3]; listed as CHO PLBL2) | enrichment of the enzyme by the chemical probes ([3]; listed as Plbl2) | Substance | concentration at which PS-80 and PS-20 are degraded (as low as) [1] [ppm] | concentration with significant impact on PS-80 degradation [1] | PS-80 degradation [2]
1 |  |  | phospholipase A2, group XV [Pla2g15] | 0.3 | below 1 ppm | 
2 | not enriched | limited enrichment | phospholipase B domain containing 2 [Plbd2] |  |  | without any PS-80 degradation
